Results on one compound are retold here after US6479673B1, “Antiretroviral enantiomeric nucleotide analogs” (Institute of Organic Chemistry and Biochemistry of the …, priority 1992, dated 2002).

In data set [1] the test system is HIV-1. As to the kind of experiment: HIV-1 induced cytopathicity in MT-4 cells. Format: cell-based, human immunodeficiency virus type 1. The protocol: (§1) The activity of the compounds against HIV-1 and HIV-2 induced cytopathicity was examined in human lymphocyte MT-4 cells. […] The infected cell cultures were then incubated at 37° C. for 5 days in a humidified CO2-controlled incubator. Then, the cytopathicity of the virus was examined by determination of MT-4 cell viability by trypan blue dye staining.
On the technique in general: Damage to the host cells serves as the signal in cytopathic effect assays.

Data set [2] has as its system HIV-2. As to the kind of experiment: HIV-2 induced cytopathicity in MT-4 cells. Format: cell-based, human immunodeficiency virus type 2. The protocol: as §1
Data set [3] relates to MT-4 cells. The experiment in a line: MT-4 cell viability (cytotoxicity). Format: cell-based, human. The protocol: The activity of the compounds against HIV-1 and HIV-2 induced cytopathicity was examined in human lymphocyte MT-4 cells. […]. The infected cell cultures were then incubated at 37° C. for 5 days in a humidified CO2-controlled incubator. Then, the cytopathicity of the virus was examined by determination of MT-4 cell viability by trypan blue dye staining. The results are summarized in Table 1 in comparison with the data on the prototype compounds.

The test system of data set [4] is Moloney murine sarcoma virus (MSV). The experiment in a line: MSV-induced transformation of C3H/3T3 cells. Format: cell-based. The following applies: concentration inhibiting MSV-induced cell transformation by 50%. The protocol:
The cells were seeded in 1-ml-wells of a 48-well microtiter plate and exposed to 80 PFU (plaque forming units) for 60-90 minutes. Then, the virus was removed and culture medium containing appropriate concentrations of the test compounds were added (1 ml per well). At day 6 post infection, MSV-induced transformation of the cell culture was examined microscopically.

In data set [5] the test system is C3H/3T3 cells. The experiment in a line: Microscopic alteration of C3H/3T3 cell culture morphology. Format: cell-based, murine. The following applies: concentration that results in a microscopic alteration of C3H/3T3 cell culture morphology.
The test system of data set [6] is Moloney murine sarcoma virus (MSV). As to the kind of experiment: MSV infection in newborn NMRI mice, intraperitoneal administration. Details: protection of the animals against MSV-induced tumor development: unit not given here. Format: in vivo. The protocol:
Two gram newborn NMRI mice were injected intramuscularly in the left hind leg with 50 μl of 250-fold diluted stock preparation of Moloney murine sarcoma virus. […] Another group of mice (20 animals) was administered RPMI-1640 medium as placebo. All compounds were solubilized in RPMI-1640 medium. The mice were observed daily for 20 days and the day of tumor initiation and the day of animal death was recorded for each animal. Statistical analyses were performed by calculating the standard deviation.

Data set [7] has the same test system. As to the kind of experiment: MSV infection in three-week-old NMRI mice, oral administration. Format: in vivo. The following applies: twice a day, 100 mg/kg (total dose) daily for five days. The protocol:
Three-week-old NMRI mice (about 10 grams body weight) were injected intramuscularly in the left hind leg with 50 μl of 20-fold diluted stock preparation of Moloney murine sarcoma virus. Starting 2-4 hours before virus infection,six animals received an orally administered test compound twice a day at 100 mg/kg(total dose) daily for five subsequent days. The control (placebo) group consisted of 14 animals. The experiment was evaluated as described in Example 35.

Data set [8] concerns retrovirus replication. The experiment in a line: Anti-retrovirus activity in vitro (conclusions on HIV and MSV tests). Format: cell-based. The following applies: in vitro.
Where [9] appears, read: MT-4 cells, concentration inhibiting HIV-induced cytopathicity by 50%.

≈ marks a conversion by molar mass, not a printed value.

For `C[C@H](Cn1cnc2c(N)nc(N)nc21)OCP(=O)(O)O` [(R)-PMPDAP, 9-(R)-(2-Phosphonomethoxypropyl)-2,6-Diaminopurine], the “selectivity index (ratio cytotoxic dose/antivirally active dose)” value in data set [1] (HIV-1) and in data set [2] (HIV-2) was over 2000 each time. Moreover, in data set [1] (setting [9]), the “EC50 HIV-1” value came to 0.05 µg/mL (≈ 0.165 µM). Moreover, the “EC50 HIV-2” value in data set [2] (setting [9]) worked out at 0.06 µg/mL (≈ 0.199 µM). Also, in data set [3], the “concentration non-toxic to the cells” value is 100 µg/mL. Also, the CC50 (in general, the concentration giving 50% cytotoxicity) in data set [3] (concentration reducing MT-4 cell viability by 50%) is over 100 µg/mL. In addition, in data set [4], the “EC50 MSV” value came out at 0.14 µg/mL (≈ 0.463 µM). The compound further registered an MIC in data set [5] of over 100 µg/mL. Also, the “Mean day of tumor initiation” value in data set [6] (2 mg/kg single dose i.p., NMRI mice) was 11 days; in data set [6] (5 mg/kg single dose i.p., NMRI mice), 12.8 days; in data set [6] (10 mg/kg single dose i.p., NMRI mice), 11.5 days; in data set [6] (20 mg/kg single dose i.p., NMRI mice), 11 days; in data set [7], 7.5 ± 1.0^*) day. Also, the “percentage of MSV-infected mice still alive at day 20 post infection” value is on record as “(90) %” in data set [6] (5 mg/kg single dose i.p.), “(90) %” in data set [6] (10 mg/kg single dose i.p.) and “(95) %” in data set [6] (20 mg/kg single dose i.p.). Moreover, the “percentage of MSV-infected mice without tumor at day 20 post infection” value is reported as “(70) %” in data set [6] (5 mg/kg single dose i.p.), “(90) %” in data set [6] (10 mg/kg single dose i.p.) and “(95) %” in data set [6] (20 mg/kg single dose i.p.). In data set [6] (i.p., NMRI mice), the “anti-MSV activity in vivo relative to (R)-PMPA” value is on record as “five fold superior over (R)-PMPA”. The “protection of the animals against MSV-induced tumor development” value in data set [6] (single dose of 10-20 mg/kg i.p.) was 90-95. For the same compound, the “Number of mice developing tumor (%)” value in data set [7] was 67%. For the same compound, the EC50 retrovirus replication in data set [8] lay in the range of 0.01 to 0.1 µg/mL.
